We go through nine compounds from US20250296959A1, “B7-H3 TARGETING PEPTIDES AND CONSTRUCTS THEREOF” (Mariana Oncology Inc., priority 2024, published 2025).

The test system of assay [1] is Calu-6 cell line. In words: Net internalization of [177Lu]Lu-labeled peptide in Calu-6 cells. The assay is classed as cell-based, Human. As to conditions: 1 hour, 37° C., glycine pH 2.5 acid wash. As for the experimental part: (§1) [^177Lu]LuCl3 was received from venders in HCl solution. For every mCi of [^177Lu]LuCl3 added to the reaction vial (1.5 mL Eppendorf vial), ammonium acetate buffer (0.2 M, pH 4.9, 100 μL, containing 1% w/v ascorbic acid and 6% v/v ethanol) and peptide conjugate (1 nmol) was added. The pH of the solution was determined to be approximately 5 by using pH strips. The reaction vial was incubated at 80° C., 700 RPM for 17-20 minutes. A sample from the reaction was analyzed by RP-HPLC using an Agilent Infinity II 1260 HPLC to determine reaction completion and radiochemical purity. HPLC conditions: Waters XBridge BEH C18 Column, 130 Å, 3.5 μm, 4.6 mm×250 mm; mobile phase: Solvent A=water (with 0.1% formic acid), solvent B=acetonitrile (with 0.1% formic acid). Gradients: 25-45% B in 10 minutes, 45-65% B in 12 minutes, 65-90% in 6 minutes at a flow rate of 0.5 mL/minute. Required amounts of the product were formulated in 1% PBSA for cell studies.
(§2) The study was conducted using Calu-6 cell line (Table 8)
(§3) Adherent cell studies: The cells were cultured in appropriate culture media (20 mL) in tissue culture treated T150 flasks at 37° C. and 5% CO2. Adherent cells were detached (60-70% confluent) using 5 mL Versene at 37° C. for 3 minutes. After confirming the viability using countess and count of detached cells using Trypan blue, the cells were centrifuged at 4° C. for 5 minutes (1,000 revolutions per minute). The cell pellet obtained was washed once with PBS and resuspended in 1% PBSA to obtain the desired cell concentration (5 million cells/mL).
Net internalization: The resuspended cells in 300 μl of 1% PBSA and counted in the gamma counter as “bound fraction” were collected in 1.5 mL Eppendorf tube and pelleted. The pelleted cells were incubated with 300 μl of 50 mM Glycine pH=2.5 for 3 minutes and then pelleted discarding the supernatant. This process was repeated one more time. The pelleted cells were washed with 300 μl of cold 1% PBSA and then resuspended in 300 μl 0.3 M NaOH. This was counted in the gamma counter as “internalized fraction”.
(§4) Calu-6 Cells are Human-Derived, Non-Engineered Lung Cancer Cell that Express B7-H3.

Assay [2] relates to Calu-6 cell line. In words: Cell associated (bound) fraction of [177Lu]Lu-labeled peptide in Calu-6 cells. The class given is cell-based, Human. Particulars: 1 hour, 37° C. Here is the method: as §1, §2, §3
Cell associated fraction: Cells were incubated with 300 μL (0.8 μCi) of the incubation buffer (containing radiolabeled peptide [^177Lu]Lu-test peptide) for 1 hour at 37 C (Table 9). Post incubation, the cells were pelleted and washed 2 times using cold PBS+1% BSA. The supernatant and washes were combined and counted together as “unbound fraction” in a gamma counter. The cells were then resuspended in 300 μL of 1% PBS+1% BSA and counted in the gamma counter as cell associated fraction (or bound fraction).
as §4

In another assay the target is T1, human 4lg B7-H3 (Homo sapiens, UniProt Q5ZPR3).
T1 sequence (Q5ZPR3 29-534): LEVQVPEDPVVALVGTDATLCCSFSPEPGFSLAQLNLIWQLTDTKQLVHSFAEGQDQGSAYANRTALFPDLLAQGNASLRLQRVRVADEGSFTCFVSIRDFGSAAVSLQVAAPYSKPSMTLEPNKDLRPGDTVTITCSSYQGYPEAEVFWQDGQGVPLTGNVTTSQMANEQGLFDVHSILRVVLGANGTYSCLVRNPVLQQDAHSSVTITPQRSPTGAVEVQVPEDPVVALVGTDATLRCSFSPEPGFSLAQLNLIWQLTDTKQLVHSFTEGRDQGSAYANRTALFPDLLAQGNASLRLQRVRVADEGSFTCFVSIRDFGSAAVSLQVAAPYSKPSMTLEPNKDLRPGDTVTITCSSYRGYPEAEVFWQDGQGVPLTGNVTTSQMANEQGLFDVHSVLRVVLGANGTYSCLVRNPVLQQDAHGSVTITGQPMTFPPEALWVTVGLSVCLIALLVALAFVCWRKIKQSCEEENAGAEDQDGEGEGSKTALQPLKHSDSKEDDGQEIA
In words: Affinity determination by surface plasmon resonance (SPR) to 4Ig B7-H3. As to conditions: 4Ig B7-H3.

Where [3] appears, read: SPR KD—37° C., 37° C. flow cell temperature.
[4] abbreviates: SPR KD—25° C., 25° C. flow cell temperature.

Starred links: 1 amine or outer side, 2 acyl side, 3 side chain; linkers in the order of their positions; H or OH if unused. Positions of bridges follow the written chain, without caps; N, C: chain ends. Non-standard residues stand in square brackets, D forms with d. Residues, ends and D or L forms follow the SMILES beside them. Groups on a side chain read outwards from the residue. *: point of attachment. Ala(1-CH2CO2H-4-piperidyl) = N[C@@H](CC1CCN(CC(=O)O)CC1)C(=O)O; Ala(piperidin-4-yl) = O=C([C@H](CC1CCN([*:3])CC1)N[*:1])[*:2]; DOTA = O=C(O)CN1CCN(CC(=O)O)CCN(CC(=O)*)CCN(CC(=O)O)CC1; Trp(5-F) = N[C@@H](Cc1c[nH]c2ccc(F)cc12)C(=O)O; Phe(3R-Me) = C[C@H](c1ccccc1)[C@H](N)C(=O)O; Ala(4-THP) = N[C@@H](CC1CCOCC1)C(=O)O; Val(3-OH) = CC(C)(O)[C@H](N)C(=O)O; Cha = N[C@@H](CC1CCCCC1)C(=O)O; Chg = N[C@H](C(=O)O)C1CCCCC1; Tle = CC(C)(C)[C@H](N)C(=O)O; hLeu = CC(C)CC[C@H](N)C(=O)O; Nle = CCCC[C@H](N)C(=O)O; PEG2 = NCCOCCOCCC(=O)O; Sar = CNCC(=O)O

“Ac-hLeu-Y-C-Tbg-G-Pip(PEG4-DOTA)Ala-ThpA-D-V-Y-C-5FW-[(2S, 3S)beta-Me-Phe]-hydroxyVal-dAla-COOH [compound 494]”: the “% net internalization” value with Calu-6 cell line [1] was “B (25<%≤50)”. Also, in the assay with Calu-6 cell line [2], the “% cell associated fraction” value was “C (%>50)”. On human 4lg B7-H3 (setting [3]), `CC(=O)N[C@@H](CC1CCCCC1)C(=O)N[C@@H](Cc1ccc(O)cc1)C(=O)N[C@H]1CSSC[C@@H](C(=O)N[C@@H](Cc2c[nH]c3ccc(F)cc23)C(=O)N[C@@H](Cc2ccccc2)C(=O)N[C@H](C(=O)N[C@H](CCCCNC(=O)CN2CCN(CC(=O)O)CCN(CC(=O)O)CCN(CC(=O)O)CC2)C(=O)O)C(C)(C)O)NC(=O)[C@H](Cc2ccc(O)cc2)NC(=O)[C@H](C(C)C)NC(=O)[C@H](CC(=O)O)NC(=O)[C@H](CC2CCOCC2)NC(=O)[C@H](CCCCN)NC(=O)CNC(=O)[C@H](C(C)(C)C)NC1=O` [compound 367, Ac-Cha-Y-C-Tbg-G-K-ThpA-D-V-Y-C-5FW-F-hydroxyVal-dLys(DOTA)-COOH] (Ac-[Cha]YC[Tle]GK[Ala(4-THP)]DVYC[Trp(5-F)]F[Val(3-OH)][dK](DOTA)-OH; disulfide 3-11) registered a Kd of 1 to 10 nM. The compound `CC(=O)N[C@@H](CCC(C)C)C(=O)N[C@@H](Cc1ccc(O)cc1)C(=O)N[C@H]1CSSC[C@@H](C(=O)N[C@@H](Cc2c[nH]c3ccc(F)cc23)C(=O)N[C@@H](Cc2ccccc2)C(=O)N[C@H](C(=O)N[C@H](CCCCNC(=O)CN2CCN(CC(=O)O)CCN(CC(=O)O)CCN(CC(=O)O)CC2)C(N)=O)[C@@H](C)O)NC(=O)[C@H](Cc2ccc(O)cc2)NC(=O)[C@H](C2CCCCC2)NC(=O)[C@H](CC(=O)O)NC(=O)[C@H](Cc2ccc(O)cc2)NC(=O)[C@H](CCCCN)NC(=O)CNC(=O)[C@H](C(C)(C)C)NC1=O` [compound 181, Ac-hLeu-Y-C-Tbg-G-K-Y-D-Chg-Y-C-5FW-F-Thr-dLys(DOTA)-CONH2] (Ac-[hLeu]YC[Tle]GKYD[Chg]YC[Trp(5-F)]FT[dK](DOTA)-NH2; disulfide 3-11) yielded a Kd at human 4lg B7-H3 (setting [4]) of 1 to 10 nM.

On human 4lg B7-H3 (setting [4]), `CC(=O)N[C@@H](CCC(C)C)C(=O)N[C@@H](Cc1ccc(O)cc1)C(=O)N[C@H]1CSSC[C@@H](C(=O)N[C@@H](Cc2c[nH]c3ccc(F)cc23)C(=O)N[C@@H](Cc2ccccc2)C(=O)N[C@H](C(=O)N[C@H](CCCCNC(=O)CN2CCN(CC(=O)O)CCN(CC(=O)O)CCN(CC(=O)O)CC2)C(=O)O)[C@@H](C)O)NC(=O)[C@H](Cc2ccc(O)cc2)NC(=O)[C@H](C(C)C)NC(=O)[C@H](CC(=O)O)NC(=O)[C@H](CC2CCOCC2)NC(=O)[C@H](CCCCN)NC(=O)CN(C)C(=O)[C@H](C(C)C)NC1=O` [compound 362, Ac-hLeu-Y-C-V-Sar-K-ThpA-D-V-Y-C-5FW-F-Thr-dLys(DOTA)-COOH] (Ac-[hLeu]YCV[Sar]K[Ala(4-THP)]DVYC[Trp(5-F)]FT[dK](DOTA)-OH; disulfide 3-11) gave a Kd of less than 1 nM. The compound `CC(=O)N[C@@H](CCC(C)C)C(=O)N[C@@H](Cc1ccc(O)cc1)C(=O)N[C@H]1CSSC[C@@H](C(=O)N[C@@H](Cc2c[nH]c3ccc(F)cc23)C(=O)N[C@H](C(=O)N[C@H](C(=O)N[C@H](CCCCNC(=O)CN2CCN(CC(=O)O)CCN(CC(=O)O)CCN(CC(=O)O)CC2)C(=O)O)C(C)(C)O)[C@H](C)c2ccccc2)NC(=O)[C@H](Cc2ccc(O)cc2)NC(=O)[C@H](C(C)C)NC(=O)[C@H](CC(=O)O)NC(=O)[C@H](CC2CCOCC2)NC(=O)[C@H](CC2CCNCC2)NC(=O)CNC(=O)[C@H](C(C)(C)C)NC1=O` [compound 434, Ac-hLeu-Y-C-Tbg-G-PipAla-ThpA-D-V-Y-C-5FW-[(2S, 3R)beta-Me-Phe]-hydroxyVal-dLys(DOTA)-COOH] (Ac-[hLeu]YC[Tle]G[Ala(piperidin-4-yl)][Ala(4-THP)]DVYC[Trp(5-F)][Phe(3R-Me)][Val(3-OH)][dK](DOTA)-OH; disulfide 3-11) registered a Kd on human 4lg B7-H3 (setting [3]) of less than 1 nM. With `CCCC[C@H](NC(C)=O)C(=O)N[C@@H](Cc1ccc(O)cc1)C(=O)N[C@H]1CSSC[C@@H](C(=O)N[C@@H](Cc2c[nH]c3ccc(F)cc23)C(=O)N[C@@H](Cc2ccccc2)C(=O)N[C@H](C(=O)N[C@H](CCCCNC(=O)CN2CCN(CC(=O)O)CCN(CC(=O)O)CCN(CC(=O)O)CC2)C(N)=O)[C@@H](C)O)NC(=O)[C@H](Cc2ccc(O)cc2)NC(=O)[C@H](C(C)C)NC(=O)[C@H](CC(=O)O)NC(=O)[C@H](Cc2ccc(O)cc2)NC(=O)[C@H](CCCCN)NC(=O)CNC(=O)[C@H](C(C)C)NC1=O` [compound 133, Ac-Nle-Y-C-V-G-K-Y-D-V-Y-C-5FW-F-Thr-dLys(DOTA)-CONH2] (Ac-[Nle]YCVGKYDVYC[Trp(5-F)]FT[dK](DOTA)-NH2; disulfide 3-11), the Kd at human 4lg B7-H3 (setting [4]) was 1 to 10 nM. On human 4lg B7-H3 (setting [3]), `CC(=O)N[C@@H](CCC(C)C)C(=O)N[C@@H](Cc1ccc(O)cc1)C(=O)N[C@H]1CSSC[C@@H](C(=O)N[C@@H](Cc2c[nH]c3ccc(F)cc23)C(=O)N[C@@H](Cc2ccccc2)C(=O)N[C@H](C(N)=O)C(C)(C)O)NC(=O)[C@H](Cc2ccc(O)cc2)NC(=O)[C@H](C(C)C)NC(=O)[C@H](CC(=O)O)NC(=O)[C@H](CC2CCN(CC(=O)O)CC2)NC(=O)[C@H](CCCCNC(=O)CN2CCN(CC(=O)O)CCN(CC(=O)O)CCN(CC(=O)O)CC2)NC(=O)CNC(=O)[C@H](C(C)(C)C)NC1=O` [compound 419, Ac-hLeu-Y-C-Tbg-G-Lys(DOTA)-Pip(CH2COOH)Ala-D-V-Y-C-5FW-F-hydroxyVal-CONH2] (Ac-[hLeu]YC[Tle]GK(DOTA)[Ala(1-CH2CO2H-4-piperidyl)]DVYC[Trp(5-F)]F[Val(3-OH)]-NH2; disulfide 3-11) displayed a Kd of 1 to 10 nM.

`CCCC[C@H](NC(C)=O)C(=O)N[C@@H](Cc1ccc(O)cc1)C(=O)N[C@H]1CSSC[C@@H](C(=O)N[C@@H](Cc2c[nH]c3ccccc23)C(=O)N[C@@H](Cc2ccccc2)C(=O)N[C@H](C(=O)N[C@H](CCCCNC(=O)CN2CCN(CC(=O)O)CCN(CC(=O)O)CCN(CC(=O)O)CC2)C(N)=O)[C@@H](C)O)NC(=O)[C@H](Cc2ccc(O)cc2)NC(=O)[C@H](C(C)C)NC(=O)[C@H](CO)NC(=O)[C@H](Cc2ccc(O)cc2)NC(=O)[C@H](CCCCN)NC(=O)CNC(=O)[C@H](C(C)C)NC1=O` [compound 81, Ac-Nle-Y-C-V-G-K-Y-S-V-Y-C-W-F-Thr-dLys(DOTA)-CONH2] (Ac-[Nle]YCVGKYSVYCWFT[dK](DOTA)-NH2; disulfide 3-11) yielded a dissociation constant (Kd) at human 4lg B7-H3 (setting [4]) of 100 to 300 nM. With `CC(=O)N[C@@H](CCC(C)C)C(=O)N[C@@H](Cc1ccc(O)cc1)C(=O)N[C@H]1CSSC[C@@H](C(=O)N[C@@H](Cc2c[nH]c3ccc(F)cc23)C(=O)N[C@@H](Cc2ccccc2)C(=O)N[C@H](C(=O)N[C@H](CCC(=O)O)C(N)=O)C(C)(C)O)NC(=O)[C@H](Cc2ccc(O)cc2)NC(=O)[C@H](C(C)C)NC(=O)[C@H](CC(=O)O)NC(=O)[C@H](CC2CCOCC2)NC(=O)[C@H](CC2CCN(C(=O)CCOCCOCCNC(=O)CN3CCN(CC(=O)O)CCN(CC(=O)O)CCN(CC(=O)O)CC3)CC2)NC(=O)CNC(=O)[C@H](C(C)(C)C)NC1=O` [compound 474, Ac-hLeu-Y-C-Tbg-G-Pip(PEG2-DOTA)Ala-ThpA-D-V-Y-C-5FW-F-hydroxyVal-dGlu-CONH2] (Ac-[hLeu]YC[Tle]G[Ala(piperidin-4-yl)]([PEG2-DOTA])[Ala(4-THP)]DVYC[Trp(5-F)]F[Val(3-OH)][dE]-NH2; disulfide 3-11), the equilibrium dissociation constant (Kd) on human 4lg B7-H3 (setting [3]) is 1 to 10 nM.
